Assay results taken from patent publication US20180334447A1, “2,3,4,5-TETRAHYDROPYRIDIN-6-AMINE DERIVATIVES” (JANSSEN PHARMACEUTICA NV, priority 2015, published 2018).

What was measured:
[1] = tested on: Abeta 1-42 produced and secreted into the medium of human neuroblastoma SKNBE2 cells; assay: Cellular αLisa assay in SKNBE2 cells, Abeta 42; assay type: cell-based; details: SKNBE2 cells expressing hAPP695, incubated for 18 hours; for IC50: Homo sapiens, SKNBE2, 18 h, read-out: Cellular αLisa assay in SKNBE2 cells Abeta 42 pIC50 (converted)
Experimental: In two αLisa assays the levels of Abeta 1-42 produced and secreted into the medium of human neuroblastoma SKNBE2 cells are quantified. The assay is based on the human neuroblastoma SKNBE2 expressing the wild type Amyloid Precursor Protein (hAPP695). The compounds are diluted and added to these cells, incubated for 18 hours and then measurements of Abeta 1-42 are taken. Abeta 1-42 are measured by sandwich αLisa. αLisa is a sandwich assay using biotinylated antibody AbN/25 attached to streptavidin coated beads and antibody cAb42/26 conjugated acceptor beads for the detection of Abeta 1-42 respectively. In the presence of Abeta 1-42, the beads come into close proximity. The excitation of the donor beads provokes the release of singlet oxygen molecules that trigger a cascade of energy transfer in the acceptor beads, resulting in light emission. Light emission is measured after 1 hour incubation (excitation at […] and emission at 615 nm).
(§1) A best-fit curve is fitted by a minimum sum of squares method to the plot of % Controlmin versus compound concentration. From this an IC50 value (inhibitory concentration causing 50% inhibition of activity) can be obtained.

[2] = tested on: Abeta 1-37, Abeta 1-38, Abeta 1-40 and Abeta 1-42 in CSF; assay: Pharmacology in the Beagle dog: beta-amyloid profile in cerebrospinal fluid (CSF) after a single dose; assay type: in vivo; details: for inhibition in vivo at 0.08 mg/kg / inhibition in vivo at 0.31 mg/kg / inhibition in vivo at 0.63 mg/kg / inhibition in vivo at 0.16 mg/kg / inhibition in vivo at 1.25 mg/kg: Canis lupus familiaris, 8 h post dosing, read-out: % Decrease in Abeta 1-42 at 8 h post dosing compared to own baseline
Experimental: Test compounds were tested to evaluate the effect on the beta-amyloid profile in cerebrospinal fluid (CSF) of dogs after a single dose, in combination with pharmacokinetic (PK) follow up and limited safety evaluation.
For each of compound 20, 21, 22 or 41, four beagle dogs (2 males, 2 females) were dosed with vehicle (1 ml/kg of an aqueous solution of 20% cyclodextrin) and 12 beagle dogs (2 males and 2 females per dosage group) were dosed with test compounds as follows:
In the case of compounds 39, 33 and 31, two beagle dogs (1 male, 1 female) were dosed with vehicle (1 ml/kg of an aqueous solution of 20% cyclodextrin) and 4 beagle dogs (2 males and 2 females) were dosed with test compound […] (0.31 mg/kg in 0.31 mg/ml of an aqueous 20% cyclodextrin solution) on an empty stomach.
Eight hours after dosing the animals got access to their regular meal for 30 minutes. Blood was taken for PK follow up (0.5, 1, 2, 4, 8, 25 and 49 hours) and serum samples for biochemistry were taken before and at 8 and 25 h after dosing. The CSF samples were used for measurement of Abeta 1-37, Abeta 1-38, Abeta 1-40 and Abeta 1-42.

[3] = target: T1, recombinant BACE2 protein (Homo sapiens, UniProt Q9Y5Z0); assay: BACE2 biochemical FRET based assay; details: BACE2, 450 minutes at room temperature, pH 5.0; read-out: Biochemical FRET based assay pIC50 (converted)
T1 construct: recombinant BACE2 protein in a final concentration of 0.4 μg/ml
T1 sequence (Q9Y5Z0 63-518): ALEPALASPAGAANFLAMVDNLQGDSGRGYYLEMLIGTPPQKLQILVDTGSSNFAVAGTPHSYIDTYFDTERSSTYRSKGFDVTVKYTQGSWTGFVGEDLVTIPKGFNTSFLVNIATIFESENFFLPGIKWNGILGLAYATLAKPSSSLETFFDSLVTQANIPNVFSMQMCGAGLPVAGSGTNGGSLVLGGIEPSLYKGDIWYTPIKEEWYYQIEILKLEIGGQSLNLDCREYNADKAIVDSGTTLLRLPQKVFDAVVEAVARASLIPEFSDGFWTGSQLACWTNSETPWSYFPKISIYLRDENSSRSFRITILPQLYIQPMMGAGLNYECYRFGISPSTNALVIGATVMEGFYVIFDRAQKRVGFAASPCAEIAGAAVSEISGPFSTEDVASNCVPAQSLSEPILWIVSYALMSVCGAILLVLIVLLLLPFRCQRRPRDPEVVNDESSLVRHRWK
Excerpt: (§2) This assay is a Fluorescence Resonance Energy Transfer Assay (FRET) based assay. The substrate for this assay contains the ‘Swedish’ Lys-Met/Asn-Leu mutation of the amyloid precursor protein (APP) beta-secretase cleavage site. This substrate also contains two fluorophores: (7-methoxycoumarin-4-yl) acetic acid (Mca) is a fluorescent donor with excitation wavelength at 320 nm and emission at 405 nm and 2,4-Dinitrophenyl (Dnp) is a proprietary quencher acceptor. […] Upon cleavage by the beta-secretase, the fluorophore Mca is separated from the quenching group Dnp, restoring the full fluorescence yield of the donor. The increase in fluorescence is linearly related to the rate of proteolysis.
Briefly in a 384-well format recombinant BACE2 protein in a final concentration of 0.4 μg/ml is incubated for 450 minutes at room temperature with 10 μM substrate in incubation buffer (50 mM Citrate buffer pH 5.0, 0.05% PEG, no DMSO) in the absence or presence of compound. Next the amount of proteolysis is directly measured by fluorescence measurement at T=0 and T=450 (excitation at 320 nm and emission at 405 nm). Results are expressed in RFU (Relative Fluorescence Units), as difference between T450 and T0.
as §1

[4] = target: T2, recombinant BACE1 protein (Homo sapiens, UniProt P56817); assay: BACE1 biochemical FRET based assay - Method 1; details: BACE1, 120 minutes at room temperature, pH 5.0; read-out: Biochemical FRET based assay - Method 1 pIC50 (converted)
T2 construct: recombinant BACE1 protein in a final concentration of 1 μg/ml
T2 sequence (P56817 46-501): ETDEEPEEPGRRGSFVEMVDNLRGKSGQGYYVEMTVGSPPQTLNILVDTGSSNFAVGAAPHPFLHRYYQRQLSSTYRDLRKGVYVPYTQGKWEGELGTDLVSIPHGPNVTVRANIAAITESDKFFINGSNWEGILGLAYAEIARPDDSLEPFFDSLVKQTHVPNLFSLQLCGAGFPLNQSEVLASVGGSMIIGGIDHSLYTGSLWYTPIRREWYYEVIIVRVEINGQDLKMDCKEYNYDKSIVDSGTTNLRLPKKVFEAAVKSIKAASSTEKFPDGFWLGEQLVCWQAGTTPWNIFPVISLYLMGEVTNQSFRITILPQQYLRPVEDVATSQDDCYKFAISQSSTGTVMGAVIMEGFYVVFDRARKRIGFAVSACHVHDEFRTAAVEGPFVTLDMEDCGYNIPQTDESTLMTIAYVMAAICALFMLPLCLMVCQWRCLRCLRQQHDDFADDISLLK
Excerpt: as §2, with “this assay is an APP derived 13 amino acids peptide that contains the” for “this assay contains the”, “cleavage by BACE1, the fluorophore” for “cleavage by the beta-secretase, the fluorophore”
Briefly in a 384-well format recombinant BACE1 protein in a final concentration of 1 μg/ml is incubated for 120 minutes at room temperature with 10 μm substrate in incubation buffer (40 mM Citrate buffer pH 5.0, 0.04% PEG, 4% DMSO) in the absence or presence of compound. Next the amount of proteolysis is directly measured by fluorescence measurement at T=0 and T=120 (excitation at 320 nm and emission at 405 nm). Results are expressed in RFU (Relative Fluorescence Units), as difference between T120 and T0.
as §1

[5] = tested on: Abetatotal in human neuroblastoma SKNBE2 cells; assay: Cellular αLisa assay in SKNBE2 cells, Abetatotal; assay type: cell-based; details: SKNBE2 cells expressing hAPP695, incubated for 18 hours; for IC50: Homo sapiens, SKNBE2, 18 h, read-out: Cellular αLisa assay in SKNBE2 cells Abetatotal pIC50 (converted)
[6] = single dose 0.31 mg/kg, 25 h post dosing (b)

Row | IC50 [1] [nM] | IC50 [3] [nM] | IC50 [4] [nM] | IC50 [5] [nM] | Structure (SMILES) | inhibition in vivo at 0.31 mg/kg ([2]; single dose 0.31 mg/kg) [%] | also measured
1 | 0.813 | 5.01 | 1.38 |  | Cc1cc(C#N)cnc1C(=O)Nc1ccc(F)c([C@]2(CF)CC[C@@](C)(S(C)(=O)=O)C(N)=N2)c1 [Compound 21] | 78 | inhibition in vivo at 0.08 mg/kg ([2]; single dose 0.08 mg/kg): 49%; inhibition in vivo at 0.63 mg/kg ([2]; single dose 0.63 mg/kg): 70%; % Decrease in Abeta 1-42 at 24 h^(a) or 25 h^(b) post dosing compared to own baseline [2, 6]: 69^(b) %
2 | 1.15 | 5.25 | 1.12 |  | CC1(S(C)(=O)=O)CCC(CF)(c2cc(NC(=O)c3ccc(C#N)cn3)ccc2F)N=C1N (centres unmarked) [Compound 22] | 78 | inhibition in vivo at 0.08 mg/kg ([2]; single dose 0.08 mg/kg): 50%; % Decrease in Abeta 1-42 at 24 h^(a) or 25 h^(b) post dosing compared to own baseline ([2]; single dose 0.08 mg/kg, 24 h post dosing (a)): 54^(a) %; % Decrease in Abeta 1-42 at 49 h post dosing compared to own baseline ([2]; single dose 0.31 mg/kg): 71%
3 |  | 3.55 | 4.27 |  | CC(C)S(=O)(=O)C1(C)CCC(CF)(c2cc(NC(=O)c3ccc(F)cn3)ccc2F)N=C1N (single isomer, unassigned) [Compound 33] | 34 | Cellular αLisa assay in SKNBE2 cells Abeta 42 pIC50 [1]: 8.32; Cellular αLisa assay in SKNBE2 cells Abetatotal pIC50 [5]: 8.37
4 | 1.38 | 25.1 | 1.29 | 2.14 | CC1(S(C)(=O)=O)CCC(CF)(c2cc(NC(=O)c3cnc(OCC(F)(F)F)cn3)ccc2F)N=C1N (centres unmarked) [Compound 39] | 53 | % Decrease in Abeta 1-42 at 24 h^(a) or 25 h^(b) post dosing compared to own baseline [2, 6]: 44^(b) %
5 | 3.09 | 44.7 | 3.72 | 2.82 | CC1(S(C)(=O)=O)CCC(CF)(c2cc(NC(=O)c3cnc(OCC(F)F)cn3)ccc2F)N=C1N (centres unmarked) [Compound 35] |  | 
6 | 15.8 | 24.5 | 15.8 | 13.5 | CCC1(S(=O)(=O)CC)CCC(CF)(c2cc(NC(=O)c3ccc(F)cn3)ccc2F)N=C1N (centres unmarked) [Compound 30] |  | 
7 |  | 4270 | 3630 |  | CC(C)S(=O)(=O)C1(C)CCC(CF)(c2cc(NC(=O)c3ccc(F)cn3)ccc2F)N=C1N (single isomer, unassigned) [Compound 34] |  | Cellular αLisa assay in SKNBE2 cells Abeta 42 pIC50 [1]: 5.56; Cellular αLisa assay in SKNBE2 cells Abetatotal pIC50 [5]: 5.72
8 | 1.62 | 16.6 | 2.19 |  | C[C@@]1(S(C)(=O)=O)CC[C@@](CF)(c2cc(NC(=O)c3cnc(OCF)cn3)ccc2F)N=C1N [Compound 41] | 78 | inhibition in vivo at 0.16 mg/kg ([2]; single dose 0.16 mg/kg): 71%; inhibition in vivo at 1.25 mg/kg ([2]; single dose 1.25 mg/kg): 89%; % Decrease in Abeta 1-42 at 24 h^(a) or 25 h^(b) post dosing compared to own baseline ([2]; single dose 0.16 mg/kg, 25 h post dosing (b)): 26^(b) %; % Decrease in Abeta 1-42 at 24 h^(a) or 25 h^(b) post dosing compared to own baseline [2, 6]: 49^(b) %; % Decrease in Abeta 1-42 at 49 h post dosing compared to own baseline ([2]; single dose 1.25 mg/kg): 41%
9 | 1.91 | 2.63 | 1.7 | 1.78 | CCS(=O)(=O)C1(C)CCC(CF)(c2cc(NC(=O)c3ccc(F)cn3)ccc2F)N=C1N (centres unmarked) [Compound 31] | 31 | 
10 | 17.4 | 389 | 41.7 | 16.2 | COc1cnc(C(=O)Nc2ccc(F)c([C@@]3(C)N=C(N)[C@](C)(C#N)C[C@]3(C)F)c2)cn1 [Compound 27] |  | 
11 | 0.398 | 11.5 | 1.05 | 0.309 | CC1(S(C)(=O)=O)CCC(CF)(c2cc(NC(=O)c3cnc(OC(F)F)cn3)ccc2F)N=C1N (centres unmarked) [Compound 32] | 76 | 
12 | 2.51 | 3.02 | 3.02 | 2.57 | C[C@@]1(S(C)(=O)=O)CC[C@@](CF)(c2cc(NC(=O)c3ccc(F)cn3)ccc2F)N=C1N [Compound 20] |  | inhibition in vivo at 0.16 mg/kg ([2]; single dose 0.16 mg/kg): 54%; inhibition in vivo at 0.63 mg/kg ([2]; single dose 0.63 mg/kg): 75%; inhibition in vivo at 1.25 mg/kg ([2]; single dose 1.25 mg/kg): 77%; % Decrease in Abeta 1-42 at 24 h^(a) or 25 h^(b) post dosing compared to own baseline ([2]; single dose 0.16 mg/kg, 24 h post dosing (a)): 44^(a) %; % Decrease in Abeta 1-42 at 49 h post dosing compared to own baseline ([2]; single dose 0.63 mg/kg): 29%; % Decrease in Abeta 1-42 at 49 h post dosing compared to own baseline ([2]; single dose 1.25 mg/kg): 65%
13 | 5.25 | 11 | 14.8 | 4.07 | C[C@@]1(c2cc(NC(=O)c3ccc(F)cn3)ccc2F)CC[C@@](CF)(S(C)(=O)=O)C(N)=N1 [Compound 26] |  | 
14 | 4.37 | 28.2 | 4.27 | 4.37 | CC1(S(C)(=O)=O)CCC(CF)(c2cc(NC(=O)c3ncc(OC(F)F)cn3)ccc2F)N=C1N (centres unmarked) [Compound 36] |  | 
15 | 851 | 776 | 871 | 182 | CC[C@]1(S(C)(=O)=O)CC[C@@](CF)(c2cc(NC(=O)c3ccc(F)cn3)ccc2F)N=C1N [Compound 29a] |  | 
16 | 550 | > 10000 | 1150 | 501 | COc1cnc(C(=O)Nc2ccc(F)c([C@@]3(C)N=C(N)[C@@](C)(C#N)C[C@]3(C)F)c2)cn1 [Compound 28] |  | 
